Measurements published in PubChem BioAssay (NCI).
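A five-concentration, 48-hour dose response in 96-well plates underlies each endpoint, interpolated linearly between surrounding concentrations. TGI: concentration producing complete growth inhibition.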

Tests used:
Assay in all cases: inhibition of tumour cell growth, NCI panel, 48 h
786-0 renal = tested on: 786-0 renal
A498 renal = tested on: A498 renal
A549 NSCLC = tested on: A549 NSCLC
ACHN renal = tested on: ACHN renal
BT-549 breast = tested on: BT-549 breast
CAKI-1 renal = tested on: CAKI-1 renal
CCRF-CEM leukemia = tested on: CCRF-CEM leukemia
COLO 205 colon = tested on: COLO 205 colon
DU-145 prostate = tested on: DU-145 prostate
EKVX NSCLC = tested on: EKVX NSCLC
HCC-2998 colon = tested on: HCC-2998 colon
HCT-116 colon = tested on: HCT-116 colon
HCT-15 colon = tested on: HCT-15 colon
HL-60(TB) leukemia = tested on: HL-60(TB) leukemia
HOP-62 NSCLC = tested on: HOP-62 NSCLC
HOP-92 NSCLC = tested on: HOP-92 NSCLC
HT29 colon = tested on: HT29 colon
IGROV1 ovarian = tested on: IGROV1 ovarian
K-562 leukemia = tested on: K-562 leukemia
KM12 colon = tested on: KM12 colon
LOX IMVI melanoma = tested on: LOX IMVI melanoma
M14 melanoma = tested on: M14 melanoma
MCF7 breast = tested on: MCF7 breast
MDA-MB-231 breast = tested on: MDA-MB-231 breast
MDA-MB-435 = tested on: MDA-MB-435
MDA-N = tested on: MDA-N
MOLT-4 leukemia = tested on: MOLT-4 leukemia
NCI-H226 lung = tested on: NCI-H226 lung
NCI-H23 lung = tested on: NCI-H23 lung
NCI-H522 lung = tested on: NCI-H522 lung
NCI/ADR-RES ovarian = tested on: NCI/ADR-RES ovarian
OVCAR-3 ovarian = tested on: OVCAR-3 ovarian
OVCAR-4 ovarian = tested on: OVCAR-4 ovarian
OVCAR-5 ovarian = tested on: OVCAR-5 ovarian
OVCAR-8 ovarian = tested on: OVCAR-8 ovarian
PC-3 prostate = tested on: PC-3 prostate
RPMI-8226 leukemia = tested on: RPMI-8226 leukemia
SF-295 CNS = tested on: SF-295 CNS
SF-539 CNS = tested on: SF-539 CNS
SK-MEL-2 melanoma = tested on: SK-MEL-2 melanoma
SK-MEL-28 melanoma = tested on: SK-MEL-28 melanoma
SK-MEL-5 melanoma = tested on: SK-MEL-5 melanoma
SK-OV-3 ovarian = tested on: SK-OV-3 ovarian
SN12C renal = tested on: SN12C renal
SNB-19 CNS = tested on: SNB-19 CNS
SR leukemia = tested on: SR leukemia
SW-620 colon = tested on: SW-620 colon
T-47D breast = tested on: T-47D breast
TK-10 renal = tested on: TK-10 renal
U251 CNS = tested on: U251 CNS
UACC-257 melanoma = tested on: UACC-257 melanoma
UACC-62 melanoma = tested on: UACC-62 melanoma
UO-31 renal = tested on: UO-31 renal
HS 578T breast = tested on: HS 578T breast
MALME-3M melanoma = tested on: MALME-3M melanoma
NCI-H460 lung = tested on: NCI-H460 lung
RXF 393 renal = tested on: RXF 393 renal
SF-268 CNS = tested on: SF-268 CNS
SNB-75 CNS = tested on: SNB-75 CNS

## O=c1[nH]cnc2c1cnn2Cc1cn(COCC(O)CO)nn1 (stereo not given)
786-0 renal
  TGI: > 100 µM
A498 renal
  TGI: > 100 µM
A549 NSCLC
  TGI: > 100 µM
ACHN renal
  TGI: > 100 µM
BT-549 breast
  TGI: > 100 µM
CAKI-1 renal
  TGI: > 100 µM
CCRF-CEM leukemia
  TGI: > 100 µM
COLO 205 colon
  TGI: > 100 µM
DU-145 prostate
  TGI: > 100 µM
EKVX NSCLC
  TGI: > 100 µM
HCC-2998 colon
  TGI: > 100 µM
HCT-116 colon
  TGI: > 100 µM
HCT-15 colon
  TGI: > 100 µM
HL-60(TB) leukemia
  TGI: > 100 µM
HOP-62 NSCLC
  TGI: > 100 µM
HOP-92 NSCLC
  TGI: > 100 µM
HT29 colon
  TGI: > 100 µM
IGROV1 ovarian
  TGI: > 100 µM
K-562 leukemia
  TGI: > 100 µM
KM12 colon
  TGI: > 100 µM
LOX IMVI melanoma
  TGI: > 100 µM
M14 melanoma
  TGI: > 100 µM
MCF7 breast
  TGI: > 100 µM
MDA-MB-231 breast
  TGI: > 100 µM
MDA-MB-435
  TGI: > 100 µM
MDA-N
  TGI: > 100 µM
MOLT-4 leukemia
  TGI: > 100 µM
NCI-H226 lung
  TGI: > 100 µM
NCI-H23 lung
  TGI: > 100 µM
NCI-H522 lung
  TGI: 62.7 µM
NCI/ADR-RES ovarian
  TGI: > 100 µM
OVCAR-3 ovarian
  TGI: > 100 µM
OVCAR-4 ovarian
  TGI: > 100 µM
OVCAR-5 ovarian
  TGI: > 100 µM
OVCAR-8 ovarian
  TGI: > 100 µM
PC-3 prostate
  TGI: > 100 µM
RPMI-8226 leukemia
  TGI: > 100 µM
SF-295 CNS
  TGI: > 100 µM
SF-539 CNS
  TGI: > 100 µM
SK-MEL-2 melanoma
  TGI: > 100 µM
SK-MEL-28 melanoma
  TGI: > 100 µM
SK-MEL-5 melanoma
  TGI: > 100 µM
SK-OV-3 ovarian
  TGI: > 100 µM
SN12C renal
  TGI: > 100 µM
SNB-19 CNS
  TGI: > 100 µM
SR leukemia
  TGI: > 100 µM
SW-620 colon
  TGI: > 100 µM
T-47D breast
  TGI: > 100 µM
TK-10 renal
  TGI: > 100 µM
U251 CNS
  TGI: > 100 µM
UACC-257 melanoma
  TGI: > 100 µM
UACC-62 melanoma
  TGI: > 100 µM
UO-31 renal
  TGI: > 100 µM

## CC1=Nc2c(N)nc(N)nc2N(C)C1
ACHN renal
  TGI: > 100 µM
BT-549 breast
  TGI: > 100 µM
CAKI-1 renal
  TGI: > 100 µM
CCRF-CEM leukemia
  TGI: > 100 µM
COLO 205 colon
  TGI: > 100 µM
DU-145 prostate
  TGI: > 100 µM
EKVX NSCLC
  TGI: > 100 µM
HCT-15 colon
  TGI: > 100 µM
HL-60(TB) leukemia
  TGI: > 100 µM
HOP-62 NSCLC
  TGI: > 100 µM
HS 578T breast
  TGI: > 100 µM
IGROV1 ovarian
  TGI: > 100 µM
K-562 leukemia
  TGI: > 100 µM
KM12 colon
  TGI: > 100 µM
M14 melanoma
  TGI: > 100 µM
MALME-3M melanoma
  TGI: > 100 µM
MCF7 breast
  TGI: > 100 µM
MDA-MB-231 breast
  TGI: > 100 µM
MDA-MB-435
  TGI: > 100 µM
MDA-N
  TGI: > 100 µM
MOLT-4 leukemia
  TGI: > 100 µM
NCI-H226 lung
  TGI: > 100 µM
NCI-H23 lung
  TGI: > 100 µM
NCI-H460 lung
  TGI: > 100 µM
OVCAR-3 ovarian
  TGI: > 100 µM
OVCAR-5 ovarian
  TGI: > 100 µM
OVCAR-8 ovarian
  TGI: > 100 µM
PC-3 prostate
  TGI: > 100 µM
RPMI-8226 leukemia
  TGI: > 100 µM
RXF 393 renal
  TGI: > 100 µM
SF-268 CNS
  TGI: > 100 µM
SF-295 CNS
  TGI: > 100 µM
SF-539 CNS
  TGI: > 100 µM
SK-MEL-2 melanoma
  TGI: > 100 µM
SK-MEL-28 melanoma
  TGI: > 100 µM
SK-MEL-5 melanoma
  TGI: > 100 µM
SK-OV-3 ovarian
  TGI: > 100 µM
SN12C renal
  TGI: > 100 µM
SNB-19 CNS
  TGI: > 100 µM
SNB-75 CNS
  TGI: > 100 µM
SW-620 colon
  TGI: > 100 µM
T-47D breast
  TGI: > 100 µM
TK-10 renal
  TGI: > 100 µM
U251 CNS
  TGI: > 100 µM
UACC-257 melanoma
  TGI: > 100 µM
UACC-62 melanoma
  TGI: > 100 µM
UO-31 renal
  TGI: > 100 µM
